The target in experiment [1] is T1, Neuropeptide Y receptor type 1 (Homo sapiens, UniProt P25929).
T1 sequence (P25929 whole entry): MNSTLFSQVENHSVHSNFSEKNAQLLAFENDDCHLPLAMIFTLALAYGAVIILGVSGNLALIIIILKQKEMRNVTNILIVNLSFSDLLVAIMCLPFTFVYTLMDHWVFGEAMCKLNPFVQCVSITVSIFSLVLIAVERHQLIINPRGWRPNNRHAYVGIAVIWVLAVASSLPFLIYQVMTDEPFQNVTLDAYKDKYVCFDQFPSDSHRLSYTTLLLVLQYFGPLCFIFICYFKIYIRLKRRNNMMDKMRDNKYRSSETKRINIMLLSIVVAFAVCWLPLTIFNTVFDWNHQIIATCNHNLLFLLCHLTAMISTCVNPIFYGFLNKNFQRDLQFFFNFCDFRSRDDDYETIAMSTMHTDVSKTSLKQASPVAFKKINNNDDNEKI
Description: NPY Y1-antagonistic activity in HEL cells by measuring the inhibition of porcine NPY (10 nM) stimulated increase in the intracellular [Ca2+] concentration in a FURA-assay. The class given is functional, cell-based.

Experiment [2] deals with T2, Neuropeptide Y receptor type 5 (Homo sapiens, UniProt Q15761).
T2 sequence (Q15761 whole entry): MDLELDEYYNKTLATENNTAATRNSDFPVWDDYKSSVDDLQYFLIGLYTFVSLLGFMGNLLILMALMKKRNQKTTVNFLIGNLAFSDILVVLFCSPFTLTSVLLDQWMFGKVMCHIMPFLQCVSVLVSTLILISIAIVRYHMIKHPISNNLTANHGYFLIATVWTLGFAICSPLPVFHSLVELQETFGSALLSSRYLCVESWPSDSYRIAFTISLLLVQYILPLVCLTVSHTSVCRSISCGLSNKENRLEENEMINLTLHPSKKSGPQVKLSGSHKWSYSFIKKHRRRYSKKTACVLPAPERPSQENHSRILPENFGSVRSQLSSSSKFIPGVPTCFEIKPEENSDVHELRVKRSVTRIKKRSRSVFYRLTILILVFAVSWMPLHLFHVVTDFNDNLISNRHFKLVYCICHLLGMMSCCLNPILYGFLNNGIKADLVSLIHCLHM
Description: Inhibition of binding of [3H]propionyl-NPY (1 nM) to Neuropeptide Y receptor type 5 in HEC-1-B cells. The class given is cell-based.

Experiment [3] deals with T3, Neuropeptide Y receptor type 2 (Homo sapiens, UniProt P49146).
T3 sequence (P49146 whole entry): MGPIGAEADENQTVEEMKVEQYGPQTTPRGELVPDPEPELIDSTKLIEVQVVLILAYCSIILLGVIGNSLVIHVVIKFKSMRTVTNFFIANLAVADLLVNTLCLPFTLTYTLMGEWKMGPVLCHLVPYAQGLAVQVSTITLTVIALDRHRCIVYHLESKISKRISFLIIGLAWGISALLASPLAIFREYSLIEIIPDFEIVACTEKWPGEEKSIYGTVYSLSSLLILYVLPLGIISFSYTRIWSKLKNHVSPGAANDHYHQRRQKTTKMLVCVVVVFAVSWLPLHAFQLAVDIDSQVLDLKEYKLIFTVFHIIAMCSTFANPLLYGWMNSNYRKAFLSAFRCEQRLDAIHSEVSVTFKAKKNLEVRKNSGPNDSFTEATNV
Description: Inhibition of binding of [3H]propionyl-NPY (1 nM) to Neuropeptide Y receptor type 2 in SMS-KAN cell membranes.

The target of experiment [4] is T1, Neuropeptide Y receptor type 1. Description: Inhibition of binding of [3H]propionyl-NPY (1 nM) to Neuropeptide Y receptor type 1 in SK-N-MC cells. The class given is cell-based.
Experiment [5] addresses Neuropeptide Y receptor type 1 (Homo sapiens) (UniProt P25929). Description: NPY Y1-antagonistic activity in HEL cells by measuring the inhibition of porcine NPY (10 nM) stimulated increase in the intracellular [Ca2+] concentration in a FURA-assay;Inactive, less than 20% inhibition at […].

As for `N=C(N)NCCCC(NC(=O)C(c1ccccc1)c1ccccc1)C(=O)NCc1ccccc1` (configuration not stated), the half-inhibitory concentration (IC50) in experiment [1] (read-out: IC50) is 0.11 µM.
As to `C[C@@H](NC(=O)C(CCCNC(=N)N)NC(=O)C(c1ccccc1)c1ccccc1)c1ccccc1` (some centres not stated), the IC50 was 0.2 µM in experiment [1] (read-out: IC50), 48 µM in experiment [2], 177 µM in experiment [3] and 0.15 µM in experiment [4].
For the compound `N=C(N)NCCCC(NC(=O)C(c1ccccc1)c1ccccc1)C(=O)NCc1ccccn1` (configuration not stated), the IC50 in experiment [1] (read-out: IC50) was determined as 3.75 µM.
Regarding `N=C(N)NCCCC(NC(=O)C(c1ccccc1)c1ccccc1)C(=O)N1CCCc2ccccc2C1` (configuration not stated), the IC50 in experiment [1] (read-out: IC50) was found to be 2.2 µM.
Regarding `CC(NC(=O)C(CCCN=C(N)N)NC(=O)C(c1ccccc1)c1ccccc1)c1ccc(O)cc1` (racemic), the IC50 is 0.06 µM in experiment [1] (read-out: IC50), 75 µM in experiment [2], 575 µM in experiment [3] and 0.019 µM in experiment [4].
Regarding `N=C(N)NCCCC(NC(=O)C(c1ccccc1)c1ccccc1)C(=O)N[C@H](C(N)=O)c1ccccc1` (some centres not stated), in experiment [1] (read-out: IC50), the IC50 stood at 7.5 µM.
On the same count and under the same terms, under `N=C(N)NCCCC(NC(=O)C(c1ccccc1)c1ccccc1)C(=O)NCCc1ccccn1` (configuration not stated) stands 11.5 µM; under `N=C(N)NCCCC(NC(=O)C(c1ccc(Cl)cc1)c1ccc(Cl)cc1)C(=O)NCc1ccccc1` (configuration not stated), 0.1 µM; under `N=C(N)NCCCC(NC(=O)Cc1ccc(-c2ccccc2)cc1)C(=O)NCc1ccccc1` (configuration not stated), 21.8 µM.
In the case of `N=C(N)NCCCC(NC(=O)C(c1ccccc1)c1ccccc1)C(=O)NCC1CCCCN1` (racemic), in experiment [5], the IC50 result is “Not Active”.
Still for that read-out and setting: under `N=C(N)NCCCC(NC(=O)C(c1ccccc1)(c1ccccc1)c1ccccc1)C(=O)NCc1ccccc1` (configuration not stated) stands “Not Active”.
Take `N=C(N)NCCCC(NC(=O)C(c1ccccc1)c1ccccc1)C(=O)NCc1ccc(O)cc1` (configuration not stated): the IC50 in experiment [2] is 80 µM; in experiment [3] it was > 100 µM.
On to `N=C(N)NCCCC(NC(=O)C(c1ccccc1)c1ccccc1)C(=O)N[C@@H](C(N)=O)c1ccccc1` (some centres not stated), for which the IC50 was 4.6 µM in experiment [1] (read-out: IC50), 163 µM in experiment [2], > 400 µM in experiment [3] and 2.4 µM in experiment [4].
`N=C(N)NCCCC(NC(=O)C(c1ccccc1)c1ccccc1)C(=O)N[C@@H](CO)c1ccccc1` (some centres not stated): the IC50 in experiment [1] (read-out: IC50) came to 22.3 µM.
In the case of `N=C(NCCCc1ccccc1)NCCCC(NC(=O)Cc1ccc(-c2ccccc2)cc1)C(=O)N1CCCc2cc(O)ccc2C1` (configuration not stated), the IC50 in experiment [1] (read-out: IC50) was 11.9 µM; in experiment [2], 0.77 µM; in experiment [3], 78 µM; in experiment [4] it was 22 µM.
For `N=C(N)NCCCC(NC(=O)C(c1ccccc1)c1ccccc1)C(=O)N[C@@H]1C[C@H](CO)c2ccccc21` (some centres not stated), the IC50 result in experiment [5] is “Not Active”.
Regarding `N=C(N)NCCCC(NC(=O)C(c1ccccc1)c1ccccc1)C(=O)N[C@H]1CCc2ccccc21` (some centres not stated), the IC50 in experiment [1] (read-out: IC50) was 1.4 µM.
On the same count and under the same terms, under `N=C(N)NCCCC(NC(=O)C(c1ccccc1)c1ccc(Cl)cc1)C(=O)N1CCCc2ccccc2C1` (configuration not stated) stands 1.1 µM.
Still for that read-out and setting: under `C[C@H](NC(=O)C(CCCNC(=N)N)NC(=O)C(c1ccccc1)c1ccccc1)c1ccccc1` (some centres not stated) stands 2.5 µM.
Regarding `N=C(N)NCCCC(NC(=O)C(c1ccccc1)c1ccccc1)C(=O)N[C@H](CO)c1ccccc1` (some centres not stated), the IC50 is 0.9 µM in experiment [1] (read-out: IC50), 68 µM in experiment [2], 540 µM in experiment [3] and 0.184 µM in experiment [4].
For `N=C(N)NCCCC(NC(=O)C(c1ccccc1)c1ccccc1)C(=O)N[C@@H]1CCc2ccccc21` (some centres not stated), the half-maximal inhibitory concentration (IC50) in experiment [1] (read-out: IC50) was determined as 21 µM.
As for `N=C(N)NCCCC(NC(=O)C(c1ccccc1)c1ccc(Cl)cc1)C(=O)N[C@H]1CCc2ccccc21` (some centres not stated), the IC50 in experiment [1] (read-out: IC50) stood at 3 µM; in experiment [2], 11.9 µM; in experiment [3] it was 59 µM; in experiment [4], 5.3 µM.
Take `N=C(N)NCCCC(NC(=O)C(c1ccccc1)(c1ccccc1)c1ccccc1)C(=O)N1CCCc2ccccc2C1` (configuration not stated): the IC50 in experiment [1] (read-out: IC50) was found to be 51 µM.
The same measure, in the same setting: the figure for `N=C(N)NCCCC(NC(=O)C(c1ccc(Cl)cc1)c1ccc(Cl)cc1)C(=O)N1CCCc2ccccc2C1` (configuration not stated) is 1.1 µM.
In the case of `N=C(NCCCc1ccccc1)NCCCC(NC(=O)Cc1ccc(-c2ccccc2)cc1)C(=O)N1CCCc2ccccc2C1` (configuration not stated), in experiment [1] (hel), the IC50 entry is “Not Active”.
`N=C(N)NCCCC(NC(=O)C(c1ccc(Cl)cc1)c1ccc(Cl)cc1)C(=O)N[C@H]1CCc2ccccc21` (some centres not stated): in experiment [1] (read-out: IC50), the IC50 was > 10 µM.
For `N=C(N)NCCCC(NC(=O)Cc1ccc(-c2ccccc2)cc1)C(=O)N[C@H]1CCc2ccccc21` (some centres not stated), the IC50 entry in experiment [1] (hel) was “Not Active”.
In the case of `N=C(N)NCCCC(NC(=O)C(c1ccccc1)c1ccccc1)C(=O)N[C@@H](C(N)=O)c1ccc(O)cc1` (some centres not stated), in experiment [1] (read-out: IC50), the IC50 worked out at 8.1 µM.
Consider `N=C(N)NCCCC(NC(=O)C(c1ccccc1)c1ccccc1)C(=O)NC1CCc2cc(O)ccc21` (racemic), for which the IC50 in experiment [1] (read-out: IC50) is 1 µM.
Still for that read-out and setting: under `N=C(N)NCCCC(NC(=O)Cc1ccc(-c2ccccc2)cc1)C(=O)N1CCCc2ccccc2C1` (configuration not stated) stands 76 µM.
In the case of `N=C(N)NCCCC(NC(=O)C(c1ccccc1)c1ccc(Cl)cc1)C(=O)NCc1ccccc1` (configuration not stated), the IC50 was found to be 0.081 µM in experiment [1] (read-out: IC50), 2.6 µM in experiment [2], 97 µM in experiment [3] and 0.17 µM in experiment [4].
For `N=C(N)NCCCC(NC(=O)C(c1ccccc1)c1ccccc1)C(=O)N1CCCc2cc(O)ccc2C1` (configuration not stated), in that order: 0.28 µM, 25 µM, 247 µM and 0.67 µM.

These data come from ChEMBL document CHEMBL1133238, “Structure-activity relationships of neuropeptide Y Y1 receptor antagonists related to BIBP 3226” (Bioorg Med Chem Lett, 2000).
